Data taken from patent publication US8048454B2, “Methods and compositions related to regulation of cytokine production by glycogen synthase kinase 3 (GSK-3)” (priority 2004, dated 2011).
Entries after “also recorded” stand apart in the source; their conditions may differ.

Tests used:
[1] = system: C57BL/6 mice; experiment: Endotoxin shock model, survival after LD100 of LPS; format: in vivo, mouse
Protocol: Mice (sham-injected and LPS groups) were pre-treated with i.p. injection of 1 ml PBS containing 0.01% DMSO (vehicle control). SB216763-treated mice were administered 1 ml of PBS containing 30 μM of SB216763. After 2 h, mice pre-treated with SB216763 (denoted LPS+SB216763) or vehicle (denoted LPS group) were given 150 μg of LPS by i.p., injection. ** and *** indicate statistically significant differences at P<0.01 and P<0.001, respectively, as compared to LPS-treated group. Results represent the mean of 30 mice/group.
(§1) C57BL/6 mice were bred and maintained within the pathogen-free animal facility at UAB. Experimental endotoxic shock was induced in age- and sex-matched C57BL/6 mice (18 to 23 g) by intraperitoneal injection of 150 μg of LPS in PBS containing 0.1% DMSO. Mice pre-treated with the GSK-3 inhibitor SB216763 received 1 ml of PBS containing 30 μM of SB216763 (DMSO was at 0.01%) by i.p. injection. LPS-control and sham-injected mice were pre-treated (i.p. injection) with 1 ml of PBS containing 0.1% DMSO. Mice given the GSK-3 inhibitor SB216763 after LPS challenge received 1 ml of PBS containing 30 μM of SB216763 (DMSO was at 0.01%) by i.p. injection. LPS-control and sham-injected mice were administered (i.p.) 1 ml of PBS containing 0.01% DMSO. At 4 h after injection, blood from all groups of mice was obtained by retro-orbital plexus bleeding.
Male C57BL/6 mice (8 to 12 weeks of age; 18 to 23 g) were injected via the intraperitoneal route with an LD100 ([…]) of E. coli K235 LPS in 200 µl of PBS containing 0.1% DMSO. Mice were monitored over a 10 day period for survivability.

[2] = system: NF-κB; experiment: IκB-α degradation and NF-κB p65 phosphorylation, Western blot, LPS-stimulated monocytes; format: cell-based, human; settings: 10 μM SB216763, 1 μg/ml E. coli LPS
Protocol: Human monocytes were pre-treated with medium only or 10 μM of SB216763 and then stimulated for the indicated time points with 1 μg/ml of E. coli LPS. The ability of E. coli LPS in the presence or absence of SB216763 to mediate the degradation and re-synthesis of (A) IκB-α and the phosphorylation of (B) NF-κB p65 (ser 276 or ser 536) were assessed by Western blot. […] The interaction of CBP with (F) NF-κB p65 and (G) CREB after treatment of cells with SB216763 (10 μM) were assessed by immunoprecipitation of CBP and probed for (F) NF-κB or (G) CREB levels by immunoblot. […]
To investigate the underlying cellular mechanism responsible for the ability of GSK-3 inhibition to suppress the production of pro-inflammatory cytokines while concurrently augmenting the production of the anti-inflammatory cytokine IL-10, the ability of how GSK-3 influenced the activation of downstream transcription factors involved in the inflammatory response was assessed. […] Since GSK-3 can mediate the phosphorylation of the p65 subunit of NF-κB, it was next determined if GSK-3 inhibition was exerting an effect on the phosphorylation status of the p65 subunit of NF-κB. […] Therefore, the nuclear levels of the NF-κB subunits p50 and p65 were analyzed in the presence or absence of the GSK-3 inhibitor SB216763 (FIG. 9C, D). […]

[3] = system: C57BL/6 mice; experiment: In vivo cytokine production in LPS-challenged mice (plasma ELISA); set-up: species or system mouse; settings: SB216763 2 h before 150 μg LPS i.p.
Protocol: SB216763-treated mice were given 1 ml of PBS containing 30 μM of SB216763. Sham-injected and LPS groups were given 1 ml of PBS containing vehicle (0.01% DMSO). After 2 h, mice pre-treated with SB216763 (denoted LPS+SB216763) or vehicle (denoted LPS group) were given 150 μg of LPS by i.p., injection. *** indicates statistically significant differences at P<0.001, as compared to LPS-treated group. Results represent the mean±SD of 10 mice/group.
as §1
Human or mouse IL-1β, IL-10, IL-12 p40, and IFN-γ levels in the plasma of mice or cell-culture supernatants were determined by using enzyme-linked immunosorbent assay (ELISA) kits from R&D systems or Ebioscience according to manufacturer's instructions.

[4] = system: human monocytes; experiment: Cytokine production by E. coli LPS-stimulated monocytes (ELISA); format: cell-based
Protocol: FIG. 2 The ability of the PI3K pathway to differentially modulate the levels of pro- and anti-inflammatory cytokines is mediated by inhibition of GSK-3. Human monocytes were pre-incubated with medium only, 10 μM SB216763, 10 mM LiCl, 200 nM Azakenpaullone, BIO (50 nM), 1 μM Akt-i, or 20 μM LY294002 for 1 h and then stimulated with 1 μg/ml of E. coli LPS for 20 h. Cell-free supernatants were collected and assessed for (A, C) IL-10, (B, D) IL-12 p40, (E) TNF-α, or (F) IL-6 production by ELISA. * and *** indicates significant differences (P<0.05 and P<0.001, respectively) compared to E. coli LPS stimulated cultures. Results represent the mean±SD of 5 separate experiments.
(A) Monocytes were pre-treated for 96 h with medium, siRNA targeting GSK-3β, or control siRNA and assayed by Western blot for the levels of total GSK-3β and total p38. (B, C) Monocytes were pre-treated with medium only, siRNA control, or siRNA targeting GSK-3β for 96 h, stimulated with E. coli LPS for 20 h, and cell-free supernatants assayed by ELISA for the levels of (B) IL-10 and (C) IL-12 p40. * indicates significant differences (P<0.05) compared to LPS stimulated cultures. Results represent the mean±SD of 3 separate experiments.
(§2) Human monocytes were pre-treated with medium only or 10 μM of SB216763 and then stimulated for the indicated time points with 1 μg/ml of E. coli LPS. The ability of E. coli LPS in the presence or absence of SB216763 to mediate the degradation and re-synthesis of (A) IκB-α and the phosphorylation of (B) NF-κB p65 (ser 276 or ser 536) were assessed by Western blot. […] The interaction of CBP with (F) NF-κB p65 and (G) CREB after treatment of cells with SB216763 (10 μM) were assessed by immunoprecipitation of CBP and probed for (F) NF-κB or (G) CREB levels by immunoblot. (H) To determine the functional effect of GSK-3 regulating CREB activity in LPS-stimulated monocytes, cells were pre-treated for 96 h with medium only, siRNA targeting CREB, or control siRNA and assayed by Western blot for the levels of CREB and total p38. (I, J) Monocytes pre-treated with medium only, siRNA control, or siRNA targeting CREB for 96 h were stimulated with E. coli LPS for 20 h and cell-free supernatants assayed by ELISA for the levels of (I) IL-10 and (J) IL-12 p40. To ensure equal protein loading, immunoblots were striped and re-probed with total p38 (A, B, H) or total CBP (F, G). […]
Human or mouse IL-1β, IL-10, IL-12 p40, and IFN-γ levels in the plasma of mice or cell-culture supernatants were determined by using enzyme-linked immunosorbent assay (ELISA) kits from R&D systems or Ebioscience according to manufacturer's instructions. […]

[5] = system: CBP; experiment: Co-immunoprecipitation of CBP with NF-κB p65 and CREB; format: cell-based, human; settings: SB216763 10 μM; LPS-stimulated monocytes
Protocol: as §2, with “p38.” for “p38. (I, J) Monocytes pre-treated with medium only, siRNA control, or siRNA targeting CREB for 96 h were stimulated with E. coli LPS for 20 h and cell-free supernatants assayed by ELISA for the levels of (I) IL-10 and (J) IL-12 p40. To ensure equal protein loading, immunoblots were striped and re-probed with total p38 (A, B, H) or total CBP (F, G).”
Moreover, it has been shown that GSK-3 can negatively regulate the activation and nuclear binding properties of CREB. Therefore, it was next determined how GSK-3 inhibition was regulating the ability of nuclear CREB (ser133) to bind its consensus sequence (FIG. 9E). […] Since the levels of CREB binding activity were augmented by GSK-3 inhibition, it was determined if GSK-3 inhibition was affecting the ability of CREB (ser133) and NF-κ p65 (ser276) to associate with CBP by co-immunoprecipitation (FIG. 9F, G).

[6] = system: NF-κB p50, NF-κB p65, CREB; experiment: Nuclear NF-κB p50, NF-κB p65 and CREB binding activity (TransAM kit); format: cell-based, human; settings: SB216763 pre-treatment 1 h; LPS; vs LPS alone
Protocol: Human monocytes were pre-treated with medium only or 10 μM of SB216763 and then stimulated for the indicated time points with 1 μg/ml of E. coli LPS. The ability of E. coli LPS in the presence or absence of SB216763 to mediate the degradation and re-synthesis of (A) IκB-α and the phosphorylation of (B) NF-κB p65 (ser 276 or ser 536) were assessed by Western blot. […] The interaction of CBP with (F) NF-κB p65 and (G) CREB after treatment of cells with SB216763 (10 μM) were assessed by immunoprecipitation of CBP and probed for (F) NF-κB or (G) CREB levels by immunoblot. (H) To determine the functional effect of GSK-3 regulating CREB activity in LPS-stimulated monocytes, cells were pre-treated for 96 h with medium only, siRNA targeting CREB, or control siRNA and assayed by Western blot for the levels of CREB and total p38. (I, J) Monocytes pre-treated with medium only, siRNA control, or siRNA targeting CREB for 96 h were stimulated with E. coli LPS for 20 h and cell-free supernatants assayed by ELISA for the levels of (I) IL-10 and (J) IL-12 p40. To ensure equal protein loading, immunoblots were striped and re-probed with total p38 (A, B, H) or total CBP (F, G). For nuclear extract analysis of (C) NF-κB p65, (D) NF-κB p50, and (E) CREB, optical density values were normalized by loading a standardized amount of protein, as indicated in the figure. * indicates statistical significance at P<0.05. For A, B, E, F, G, H, and I, results are representative of 3 separate experiments. For C and D, results represent the mean±SD of 3 separate experiments.
Human monocytes in 24-well polystyrene tissue culture plates were pretreated for 1 h with SB216763 or 0.01% DMSO and then incubated with medium alone or LPS for the indicated time points. Cells were collected, washed two times in PBS, and then assayed for activity using the TransAM kit specific for the given transcription factor (Active Motif, Carlsbad, Calif.). […]

[7] = system: human CD4+ T cells; experiment: Cytokine production by anti-CD3 stimulated purified CD4+ T cells (ELISA); format: cell-based; settings: plate-bound anti-CD3 10 μg/ml, 72 h
Protocol: Supernatants were analyzed for […] (IFN-γ) and Th2- (IL-10) type cytokines by ELISA. […] Thus, inhibition of GSK-3 at the T cell level also suppresses inflammatory cytokines while increasing anti-inflammatory cytokine production. Moreover, inhibition of GSK-3 can enhance Th2-type immune responses while suppressing Th1-type responses.

Cn1cc(C2=C(c3ccc(Cl)cc3Cl)C(=O)NC2=O)c2ccccc21 [SB216763]
LPS (endotoxin) lethality (in words) ([1]; given 2 h before or 2 h after LD100 of LPS): mediates protection; also recorded: severe attenuation
mice survived ([1]; given 2 hours after LD100 of LPS, 1 ml PBS with 30 μM i.p., 0% in control-treated mice): approximately 55%
mice protected from death ([1]; given 2 hours before LD100 of LPS, 1 ml PBS with 30 μM i.p., 0% in control-treated mice): greater than 70%
late deaths among survivors ([1]; monitored over a 10-day period, both treatment groups): no late deaths
rate or extent of degradation or re-synthesis of IκB-α protein [2]: failed to alter
level and duration of p65 phosphorylation (ser276 or ser536) ([2]; vs LPS alone): Neither the level nor duration
reduction of systemic levels of several pro-inflammatory cytokines ([3]; IL-1β, IL-12 p40, IFN-γ, vs LPS-treated controls): more than 50%
in vivo (systemic) levels of IL-1β, IL-12 and IFN-γ (in words) [3]: suppresses; also recorded: profound decrease
in vivo levels of IL-10 (in words) [3]: enhanced
increase of in vivo production of IL-10 ([3]; vs LPS-treated controls): more than 2 fold
IL-10 levels compared to E. coli LPS-treated monocytes (in words) ([4]; inhibitor pre-incubation 1 h, 1 μg/ml E. coli LPS 20 h): approximate three-fold increase
reduction in IL-12 p40 levels ([4]; inhibitor pre-incubation 1 h, 1 μg/ml E. coli LPS 20 h, vs LPS alone): ~80%
level of IL-12 p40 in cultures pre-treated with siRNA against CREB (in words) ([4]; siRNA against CREB 96 h plus SB216763, LPS): did not appear to be altered
IL-10 levels in cells pretreated with siRNA targeting CREB (in words) ([4]; siRNA targeting CREB 96 h plus SB216763, LPS, vs LPS stimulated controls): did not exhibit any discernible increase
levels of CREB bound to CBP [5]: potently augmented
levels of p65 associated with CBP [5]: pronounced decrease
DNA-binding properties of CREB [6]: significant increase
nuclear levels of NF-κB p50 able to bind its consensus sequence [6]: did not appear to be influenced
nuclear levels of NF-κB p65 able to bind its consensus sequence [6]: did not appear to be influenced
levels of IL-10 [7]: significantly enhanced
production of IFN-γ [7]: suppress
